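Growth conditions: 96-well plates. Treatment: test compound, 48 hours, 5 concentrations. Analysis: linear interpolation between bracketing concentrations; unreached endpoints set to highest concentration. GI50: concentration for 50% inhibition of growth.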 Active and inactive are the calls of the source. No stated cut-off is given here; in the data, active = GI50 up to about 1.1 µM and inactive = higher.
What was measured:
Assay in all cases: NCI-60 cell line screen, 48 h
SW-620 = test system: SW-620
HCT-116 = test system: HCT-116
HT-29 = test system: HT-29
SF-268 = test system: SF-268
Malme-3M = test system: Malme-3M
NCI/ADR-RES = test system: NCI/ADR-RES
NCI-H23 = test system: NCI-H23
OVCAR-5 = test system: OVCAR-5
NCI-H226 = test system: NCI-H226
CCRF-CEM = test system: CCRF-CEM
UACC-257 = test system: UACC-257
MDA-N = test system: MDA-N
TK-10 = test system: TK-10
NCI-H522 = test system: NCI-H522
NCI-H460 = test system: NCI-H460
EKVX = test system: EKVX
RXF 393 = test system: RXF 393
MOLT-4 = test system: MOLT-4
COLO 205 = test system: COLO 205
SR = test system: SR
OVCAR-4 = test system: OVCAR-4
BT-549 = test system: BT-549
A549 = test system: A549
MDA-MB-231 = test system: MDA-MB-231
SK-MEL-2 = test system: SK-MEL-2
KM12 = test system: KM12
HOP-62 = test system: HOP-62
OVCAR-8 = test system: OVCAR-8
RPMI-8226 = test system: RPMI-8226
M14 = test system: M14
SNB-19 = test system: SNB-19
HL-60 = test system: HL-60
SK-MEL-5 = test system: SK-MEL-5
786-0 = test system: 786-0
SK-OV-3 = test system: SK-OV-3
HCT-15 = test system: HCT-15
U-251 = test system: U-251
K562 = test system: K562
UACC-62 = test system: UACC-62
A498 = test system: A498
CAKI-1 = test system: CAKI-1
MDA-MB-435 = test system: MDA-MB-435
DU-145 = test system: DU-145
SK-MEL-28 = test system: SK-MEL-28
IGROV-1 = test system: IGROV-1
ACHN = test system: ACHN
SF-295 = test system: SF-295
PC-3 = test system: PC-3
SN12C = test system: SN12C
MCF7 = test system: MCF7
LOX IMVI = test system: LOX IMVI
Hs-578T = test system: Hs-578T
HCC 2998 = test system: HCC 2998
HOP-92 = test system: HOP-92
UO-31 = test system: UO-31
T47D = test system: T47D
OVCAR-3 = test system: OVCAR-3
SF-539 = test system: SF-539

Structure (SMILES): CNC(=O)Nn1c(SC)nc2ccccc21
- GI50 (SW-620): > 100 µM (inactive)
- GI50 (HCT-116): > 100 µM (inactive)
- GI50 (HT-29): > 100 µM (inactive)
- GI50 (SF-268): > 100 µM (inactive)
- GI50 (Malme-3M): > 100 µM (inactive)
- GI50 (NCI/ADR-RES): > 100 µM (inactive)
- GI50 (NCI-H23): > 100 µM (inactive)
- GI50 (OVCAR-5): > 100 µM (inactive)
- GI50 (NCI-H226): > 100 µM (inactive)
- GI50 (CCRF-CEM): > 100 µM (inactive)
- GI50 (UACC-257): > 100 µM (inactive)
- GI50 (MDA-N): > 100 µM (inactive)
- GI50 (TK-10): > 100 µM (inactive)
- GI50 (NCI-H522): > 100 µM (inactive)
- GI50 (NCI-H460): > 100 µM (inactive)
- GI50 (EKVX): > 100 µM (inactive)
- GI50 (RXF 393): > 100 µM (inactive)
- GI50 (MOLT-4): > 100 µM (inactive)
- GI50 (COLO 205): > 100 µM (inactive)
- GI50 (SR): > 100 µM (inactive)
- GI50 (OVCAR-4): > 100 µM (inactive)
- GI50 (BT-549): > 100 µM (inactive)
- GI50 (A549): > 100 µM (inactive)
- GI50 (MDA-MB-231): > 100 µM (inactive)
- GI50 (SK-MEL-2): > 100 µM (inactive)
- GI50 (KM12): > 100 µM (inactive)
- GI50 (HOP-62): > 100 µM (inactive)
- GI50 (OVCAR-8): > 100 µM (inactive)
- GI50 (RPMI-8226): > 100 µM (inactive)
- GI50 (M14): > 100 µM (inactive)
- GI50 (SNB-19): > 100 µM (inactive)
- GI50 (HL-60): > 100 µM (inactive)
- GI50 (SK-MEL-5): > 100 µM (inactive)
- GI50 (786-0): > 100 µM (inactive)
- GI50 (SK-OV-3): > 100 µM (inactive)
- GI50 (HCT-15): > 100 µM
- GI50 (U-251): > 100 µM (inactive)
- GI50 (K562): > 100 µM (inactive)
- GI50 (UACC-62): > 100 µM (inactive)
- GI50 (A498): > 100 µM (inactive)
- GI50 (CAKI-1): > 100 µM (inactive)
- GI50 (MDA-MB-435): > 100 µM (inactive)
- GI50 (DU-145): > 100 µM (inactive)
- GI50 (SK-MEL-28): > 100 µM (inactive)
- GI50 (IGROV-1): > 100 µM (inactive)
- GI50 (ACHN): > 100 µM (inactive)
- GI50 (SF-295): > 100 µM (inactive)
- GI50 (PC-3): > 100 µM (inactive)
- GI50 (SN12C): > 100 µM (inactive)
- GI50 (MCF7): > 100 µM (inactive)
- GI50 (LOX IMVI): > 100 µM (inactive)
- GI50 (Hs-578T): > 100 µM (inactive)
- GI50 (HCC 2998): > 100 µM (inactive)
- GI50 (HOP-92): > 100 µM (inactive)
- GI50 (UO-31): > 100 µM (inactive)
- GI50 (T47D): > 100 µM (inactive)

Structure (SMILES): COC(=O)/C=C\[C@H]1[C@H](C)N1S(=O)(=O)c1ccc(C)cc1 (some centres not stated)
- GI50 (SW-620): > 100 µM (inactive)
- GI50 (HCT-116): > 100 µM (inactive)
- GI50 (HT-29): > 100 µM (inactive)
- GI50 (SF-268): > 100 µM (inactive)
- GI50 (Malme-3M): > 100 µM (inactive)
- GI50 (NCI/ADR-RES): > 100 µM (inactive)
- GI50 (NCI-H23): > 100 µM (inactive)
- GI50 (OVCAR-5): > 100 µM (inactive)
- GI50 (NCI-H226): > 100 µM (inactive)
- GI50 (CCRF-CEM): 91 µM (inactive)
- GI50 (UACC-257): > 100 µM (inactive)
- GI50 (OVCAR-3): > 100 µM (inactive)
- GI50 (MDA-N): > 100 µM (inactive)
- GI50 (TK-10): > 100 µM (inactive)
- GI50 (NCI-H522): 20.4 µM (inactive)
- GI50 (NCI-H460): > 100 µM (inactive)
- GI50 (EKVX): > 100 µM (inactive)
- GI50 (RXF 393): > 100 µM (inactive)
- GI50 (MOLT-4): > 100 µM (inactive)
- GI50 (COLO 205): > 100 µM (inactive)
- GI50 (SR): > 100 µM (inactive)
- GI50 (OVCAR-4): > 100 µM (inactive)
- GI50 (BT-549): > 100 µM (inactive)
- GI50 (A549): > 100 µM (inactive)
- GI50 (MDA-MB-231): > 100 µM (inactive)
- GI50 (SK-MEL-2): > 100 µM (inactive)
- GI50 (KM12): > 100 µM (inactive)
- GI50 (SF-539): > 100 µM (inactive)
- GI50 (HOP-62): > 100 µM (inactive)
- GI50 (OVCAR-8): > 100 µM (inactive)
- GI50 (RPMI-8226): > 100 µM (inactive)
- GI50 (M14): > 100 µM (inactive)
- GI50 (SNB-19): > 100 µM (inactive)
- GI50 (HL-60): > 100 µM (inactive)
- GI50 (SK-MEL-5): > 100 µM (inactive)
- GI50 (786-0): > 100 µM (inactive)
- GI50 (SK-OV-3): > 100 µM (inactive)
- GI50 (HCT-15): 70.3 µM
- GI50 (U-251): > 100 µM (inactive)
- GI50 (K562): > 100 µM (inactive)
- GI50 (UACC-62): > 100 µM (inactive)
- GI50 (A498): > 100 µM (inactive)
- GI50 (CAKI-1): > 100 µM (inactive)
- GI50 (MDA-MB-435): > 100 µM (inactive)
- GI50 (DU-145): > 100 µM (inactive)
- GI50 (SK-MEL-28): > 100 µM (inactive)
- GI50 (IGROV-1): > 100 µM (inactive)
- GI50 (ACHN): > 100 µM (inactive)
- GI50 (SF-295): > 100 µM (inactive)
- GI50 (PC-3): > 100 µM (inactive)
- GI50 (SN12C): > 100 µM (inactive)
- GI50 (MCF7): > 100 µM (inactive)
- GI50 (LOX IMVI): > 100 µM (inactive)
- GI50 (Hs-578T): > 100 µM (inactive)
- GI50 (HCC 2998): > 100 µM (inactive)
- GI50 (T47D): > 100 µM (inactive)
